# Active and inactive are the calls of the source.
# Assays:
# [1] = molecular target: T1, Oxysterols receptor LXR-beta (Homo sapiens, UniProt P55055); format: functional, cell-based;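 further: agonist activity at LXR measured by a cell-based luminescence readout across a dose range, run as a counterscreen for daf-12 agonists; HEK293 cells with Gal4-LXR fusion and GAL4-driven luciferase reporter; potency for activation of Gal4-LXR reporter so compounds are agonists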
# T1 sequence (P55055 whole entry): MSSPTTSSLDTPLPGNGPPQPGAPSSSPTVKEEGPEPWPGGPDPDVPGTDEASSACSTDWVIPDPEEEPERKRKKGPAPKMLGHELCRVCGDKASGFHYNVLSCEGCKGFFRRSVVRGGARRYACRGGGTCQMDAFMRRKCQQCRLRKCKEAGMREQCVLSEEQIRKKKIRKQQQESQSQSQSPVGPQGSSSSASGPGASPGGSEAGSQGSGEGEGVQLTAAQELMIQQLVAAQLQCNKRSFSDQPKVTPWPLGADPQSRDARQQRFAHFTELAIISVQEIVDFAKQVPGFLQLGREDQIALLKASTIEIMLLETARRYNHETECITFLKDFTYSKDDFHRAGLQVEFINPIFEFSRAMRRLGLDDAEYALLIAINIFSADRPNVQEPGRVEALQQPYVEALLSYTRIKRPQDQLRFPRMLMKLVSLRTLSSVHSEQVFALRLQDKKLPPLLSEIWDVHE
# [2] = molecular target: T2, High affinity choline transporter 1 (Homo sapiens, UniProt Q9GZV3); assay: CHT inhibitors, dose response, cell-based, 5-point CRC, membrane potential dye (AID 504840); format: functional
# T2 sequence (Q9GZV3 whole entry): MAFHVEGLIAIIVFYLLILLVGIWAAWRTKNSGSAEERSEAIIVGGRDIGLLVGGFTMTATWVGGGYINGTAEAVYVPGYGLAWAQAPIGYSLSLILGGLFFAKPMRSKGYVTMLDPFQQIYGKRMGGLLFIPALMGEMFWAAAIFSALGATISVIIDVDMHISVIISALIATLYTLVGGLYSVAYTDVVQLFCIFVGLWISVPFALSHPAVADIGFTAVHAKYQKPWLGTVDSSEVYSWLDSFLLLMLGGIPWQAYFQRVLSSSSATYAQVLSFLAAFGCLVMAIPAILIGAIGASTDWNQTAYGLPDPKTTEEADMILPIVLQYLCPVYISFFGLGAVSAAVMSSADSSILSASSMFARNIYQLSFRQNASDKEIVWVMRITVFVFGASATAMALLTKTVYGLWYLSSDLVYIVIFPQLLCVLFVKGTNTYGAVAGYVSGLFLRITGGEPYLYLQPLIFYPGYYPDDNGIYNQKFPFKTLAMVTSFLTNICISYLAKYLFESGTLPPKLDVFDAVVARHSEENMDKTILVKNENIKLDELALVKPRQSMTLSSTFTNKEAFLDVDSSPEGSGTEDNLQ
# [3] = molecular target: T3, Heat shock factor protein 1 (Mus musculus, UniProt P38532); assay: HSF1 potentiators in luciferase reporter cells, confirmation, cell-based, NIH3T3, luminescence, dose retest (AID 435004); format: functional;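 further: stress induced by proteasome inhibitor MG132 added 30 min after compound; luciferase reporter driven by HSF1 response element in NIH3T3 cells; actives raise luminescence as potentiators of the MG132 stress response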
# T3 sequence (P38532 whole entry): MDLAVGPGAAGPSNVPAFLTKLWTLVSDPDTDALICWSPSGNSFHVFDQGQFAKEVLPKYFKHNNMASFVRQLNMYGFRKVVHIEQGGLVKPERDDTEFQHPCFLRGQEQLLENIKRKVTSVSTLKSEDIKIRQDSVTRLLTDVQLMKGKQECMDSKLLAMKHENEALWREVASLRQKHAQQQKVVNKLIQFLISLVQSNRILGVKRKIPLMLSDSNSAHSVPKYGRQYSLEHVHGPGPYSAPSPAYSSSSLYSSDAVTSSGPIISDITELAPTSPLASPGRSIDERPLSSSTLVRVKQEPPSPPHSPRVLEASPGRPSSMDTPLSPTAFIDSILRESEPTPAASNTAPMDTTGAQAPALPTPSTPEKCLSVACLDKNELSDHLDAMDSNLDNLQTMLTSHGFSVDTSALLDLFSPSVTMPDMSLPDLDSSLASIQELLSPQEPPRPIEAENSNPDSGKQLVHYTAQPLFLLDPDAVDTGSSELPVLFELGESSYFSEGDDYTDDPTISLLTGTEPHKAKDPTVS
# [4] = tested on: H4; assay: Luminescence Cell-Based Dose Response HTS to Identify Activators of 5'UTR Stem-Loop Driven Prion Protein mRNA Translation in H4 Neuroglioblastoma Cells. [Related pubchem assays: 1829 (Project Summary), 1814 (Primary HTS)]; format: functional; details: Homo sapiens
# [5] = Luminescence Cell-Based Dose Response HTS to Identify Activators of Luciferase Translation or Activity in H4 […] Cells. [Related pubchem assays: 1829 (Project Summary), 1814 (Primary HTS)]; format: functional
# [6] = cells; details: A549
# [7] = molecular target: T4, Sentrin-specific protease 7 (Homo sapiens, UniProt Q9BQF6); format: functional;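 further: Luminescence-based dose-response confirmation of ultra-high-throughput screening hits, measuring inhibition of SENP7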
# T4 sequence (Q9BQF6 whole entry): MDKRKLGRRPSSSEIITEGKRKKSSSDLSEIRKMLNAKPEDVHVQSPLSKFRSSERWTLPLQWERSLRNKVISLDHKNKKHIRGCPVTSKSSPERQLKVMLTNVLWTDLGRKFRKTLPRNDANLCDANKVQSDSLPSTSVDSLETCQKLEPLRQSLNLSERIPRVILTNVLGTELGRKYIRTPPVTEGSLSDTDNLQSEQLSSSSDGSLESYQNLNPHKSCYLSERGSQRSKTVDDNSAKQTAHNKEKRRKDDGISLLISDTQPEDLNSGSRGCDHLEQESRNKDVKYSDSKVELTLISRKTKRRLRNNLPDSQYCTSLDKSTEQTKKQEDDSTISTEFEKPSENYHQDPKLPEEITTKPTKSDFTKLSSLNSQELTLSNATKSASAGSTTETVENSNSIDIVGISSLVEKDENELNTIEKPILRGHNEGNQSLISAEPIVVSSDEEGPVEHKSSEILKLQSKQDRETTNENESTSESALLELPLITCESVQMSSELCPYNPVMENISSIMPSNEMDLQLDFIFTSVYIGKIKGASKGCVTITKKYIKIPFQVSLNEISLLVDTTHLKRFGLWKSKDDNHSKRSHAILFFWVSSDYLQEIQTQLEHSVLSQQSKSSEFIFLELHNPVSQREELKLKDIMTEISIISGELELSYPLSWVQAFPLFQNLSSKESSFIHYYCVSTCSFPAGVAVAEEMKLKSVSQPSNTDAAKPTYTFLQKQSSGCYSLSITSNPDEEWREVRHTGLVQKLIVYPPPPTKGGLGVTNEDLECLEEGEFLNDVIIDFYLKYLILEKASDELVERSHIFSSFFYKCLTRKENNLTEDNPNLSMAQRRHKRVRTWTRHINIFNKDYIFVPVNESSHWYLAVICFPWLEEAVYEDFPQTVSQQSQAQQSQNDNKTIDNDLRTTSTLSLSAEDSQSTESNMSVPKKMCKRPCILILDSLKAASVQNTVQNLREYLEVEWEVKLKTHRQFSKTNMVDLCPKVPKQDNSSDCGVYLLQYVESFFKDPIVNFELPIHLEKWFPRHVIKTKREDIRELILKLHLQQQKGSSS
# [8] = molecular target: T5, Sentrin-specific protease 6 (Homo sapiens, UniProt Q9GZR1); format: functional;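 further: Luminescence-based dose-response confirmatory assay of SENP6 inhibition, following up an ultra-high-throughput screen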
# T5 sequence (Q9GZR1 whole entry): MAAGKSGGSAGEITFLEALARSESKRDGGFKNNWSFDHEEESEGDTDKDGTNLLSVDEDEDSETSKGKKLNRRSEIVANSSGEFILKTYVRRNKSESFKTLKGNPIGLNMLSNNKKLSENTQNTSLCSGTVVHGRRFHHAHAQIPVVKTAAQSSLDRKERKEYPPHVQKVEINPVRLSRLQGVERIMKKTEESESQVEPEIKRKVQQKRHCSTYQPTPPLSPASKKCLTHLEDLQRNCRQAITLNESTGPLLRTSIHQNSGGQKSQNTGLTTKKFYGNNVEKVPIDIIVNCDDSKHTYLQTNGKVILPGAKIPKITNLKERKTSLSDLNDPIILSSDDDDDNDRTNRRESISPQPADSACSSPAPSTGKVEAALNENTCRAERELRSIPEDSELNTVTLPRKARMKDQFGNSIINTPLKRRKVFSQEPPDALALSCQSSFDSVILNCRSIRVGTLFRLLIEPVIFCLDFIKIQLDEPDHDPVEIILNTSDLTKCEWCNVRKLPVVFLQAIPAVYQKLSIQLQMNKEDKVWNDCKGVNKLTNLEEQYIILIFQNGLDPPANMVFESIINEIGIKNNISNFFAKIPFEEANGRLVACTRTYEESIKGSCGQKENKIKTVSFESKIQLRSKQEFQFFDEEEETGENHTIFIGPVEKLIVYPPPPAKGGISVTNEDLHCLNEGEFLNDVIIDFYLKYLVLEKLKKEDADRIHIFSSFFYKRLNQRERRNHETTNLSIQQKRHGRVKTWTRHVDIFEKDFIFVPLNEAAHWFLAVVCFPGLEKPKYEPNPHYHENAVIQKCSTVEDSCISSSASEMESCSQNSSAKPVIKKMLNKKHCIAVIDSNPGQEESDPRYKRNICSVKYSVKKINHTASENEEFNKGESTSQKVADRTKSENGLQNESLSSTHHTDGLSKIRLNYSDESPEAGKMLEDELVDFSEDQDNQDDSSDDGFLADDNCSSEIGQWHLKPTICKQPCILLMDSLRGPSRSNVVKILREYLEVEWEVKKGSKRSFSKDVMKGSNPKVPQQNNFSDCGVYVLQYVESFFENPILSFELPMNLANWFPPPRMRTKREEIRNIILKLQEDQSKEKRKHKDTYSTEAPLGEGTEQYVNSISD
# [9] = molecular target: T6, Sentrin-specific protease 8 (Homo sapiens, UniProt Q96LD8); format: functional;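 further: luminescence read-out of SENP8 inhibition, dose-response confirmation following an ultra-high-throughput screen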
# T6 sequence (Q96LD8 whole entry): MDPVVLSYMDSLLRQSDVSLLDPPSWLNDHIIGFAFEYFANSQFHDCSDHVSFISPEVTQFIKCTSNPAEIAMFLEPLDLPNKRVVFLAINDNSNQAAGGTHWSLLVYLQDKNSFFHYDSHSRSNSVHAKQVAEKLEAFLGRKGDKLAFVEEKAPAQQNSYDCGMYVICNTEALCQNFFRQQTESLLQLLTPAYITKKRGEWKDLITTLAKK
# [10] = cells; details: HEK293
# [11] = molecular target: T7, Caspase-3 (Homo sapiens, UniProt P42574); format: functional;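 further: Dose-response selectivity test against caspase-3 for candidate inhibitors of sentrin-specific proteases (SENPs)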
# T7 sequence (P42574 whole entry): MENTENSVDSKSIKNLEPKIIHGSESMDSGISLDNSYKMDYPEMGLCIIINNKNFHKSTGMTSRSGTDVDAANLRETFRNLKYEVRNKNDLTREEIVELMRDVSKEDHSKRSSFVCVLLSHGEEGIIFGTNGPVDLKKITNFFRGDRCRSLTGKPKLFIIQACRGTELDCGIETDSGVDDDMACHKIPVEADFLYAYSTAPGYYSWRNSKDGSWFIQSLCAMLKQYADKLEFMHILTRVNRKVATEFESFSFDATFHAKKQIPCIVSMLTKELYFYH
compound,measurement,setting,value
O=C(Nc1ccn(Cc2ccccc2)n1)c1n[nH]c([N+](=O)[O-])c1Cl,EC50,[1],> 67.5 µM (inactive)
same,IC50,[2],4.37 µM (active)
same,EC50,[3],> 260 µM (inconclusive)
Cn1c(NC(=O)CCc2ccccc2)cc(=O)n(C)c1=O,EC50,[1],> 67.5 µM (inactive)
same,EC50,[4],9.93 µM (active)
same,EC50,[5],4.41 µM (inconclusive)
O=C(Nc1ccc2c(c1)OCCO2)c1ccc(NC(=O)C2CCCO2)cc1 (configuration not stated),AC50,[6],> 52 µM (inactive)
CC(=O)c1sc(N/N=C\c2ccc(N(C)C)cc2)nc1C,IC50,[7],3.05 µM (active)
same,IC50,[8],3.82 µM (active)
same,IC50,[9],4.08 µM (active)
same,AC50,[10],> 52 µM (inactive)
same,IC50,[11],9.56 µM (active)

# Reference: ChEMBL document CHEMBL1201862, “PubChem BioAssay data set” (2004)
